Patent publication US12173007B2, “Imidazopyridazine IL-17 inhibitor compounds” (Janssen Pharmaceutica NV, priority 2021, dated 2024)

Tests used:
[1] = system: IL-17A-induced G-CSF production in human normal keratinocyte (NHK); test: NHK assay: IL-17A-induced G-CSF production in normal human keratinocytes; assay type: cell-based; conditions: 24 h, IL-17A 5 ng/mL, G-CSF by HTRF, average if tested more than once
How it was run: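 Stimulus rhIL-17A 5 ng/mL final, premixed 1 h rt with compound; adult NHK, 5% FBS, 0.2% DMSO. Viability by CellTiter-Glo vs DMSO.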

[2] = molecular target: IL-17A(FLAG-Tagged): IL-17RA(His-Tagged) binding (Homo sapiens, UniProt Q16552, K93Q); test: IL-17A(FLAG-tagged):IL-17RA(His-tagged) binding disruption Eu-HTRF assay, Protocol 2; conditions: FLAG-IL-17A 1 nM; average if tested more than once
Sequence of UniProt Q16552 (Q16552 with tags, fused parts or gaps K93Q): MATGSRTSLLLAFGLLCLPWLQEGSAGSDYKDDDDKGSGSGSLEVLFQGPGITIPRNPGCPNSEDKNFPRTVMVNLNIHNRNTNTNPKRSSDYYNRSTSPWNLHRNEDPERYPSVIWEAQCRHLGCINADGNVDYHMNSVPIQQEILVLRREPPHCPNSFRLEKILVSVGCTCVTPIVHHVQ
How it was run: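 FLAG-tagged IL-17A (1 nM final) was preincubated with compound (2-fold serial dilutions, 22 points) for 1 h at rt in PBS + 0.01% Triton X-100. 10×His-IL-17RA, Eu-anti-FLAG and D2-anti-His in buffer containing KF were then added for 2 h at rt. IC50 came from the 665/615 nm HTRF ratio fitted to a one-site competition model.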

| Compound | IC50 [2] | IC50 ([1]; Homo sapiens, Keratinocyte) | IC50 [1] |
| --- | --- | --- | --- |
| COC[C@H](c1cnn2cc([C@@H](NC(=O)c3nonc3C3CC3)[C@H](C)OC3CC3)nc2c1)N1CC(F)(F)CNC1=O (relative stereo) [Example 55, N-((1R*,2S*)-2-cyclopropoxy-1-(7-((S)-1-(5,5-difluoro-2-oxotetrahydropyrimidin-1(2H)-yl)-2-methoxyethyl)imidazo[1,2-b]pyridazin-2-yl)propyl)-4-cyclopropyl-1,2,5-oxadiazole-3-carboxamide] | > 100 nM | > 100 nM |  |
| COC[C@H](c1cnn2cc([C@H](CCC(C)(C)C(F)(F)F)NC(=O)c3ncnn3C(C)C)nc2c1)N1CC(F)(F)CNC1=O [Example 111, N—((S)-1-(7-((S)-1-(5,5-Difluoro-2-oxotetrahydropyrimidin-1(2H)-yl)-2-methoxyethyl)imidazo[1,2-b]pyridazin-2-yl)-5,5,5-trifluoro-4,4-dimethylpentyl)-1-isopropyl-1H-1,2,4-triazole-5-carboxamide] | < 50 nM | < 50 nM |  |
| COC[C@H](c1cnn2cc([C@@H](NC(=O)c3nonc3C3CC3)[C@H](C)OC3(C(F)(F)F)CC3)nc2c1)N1CC(F)(F)CNC1=O (relative stereo) [Example 91, 4-Cyclopropyl-N-((1R*,2S*)-1-(7-((S)-1-(5,5-difluoro-2-oxotetrahydropyrimidin-1(2H)-yl)-2-methoxyethyl)imidazo[1,2-b]pyridazin-2-yl)-2-(1-(trifluoromethyl)cyclopropoxy)propyl)-1,2,5-oxadiazole-3-carboxamide] | 50 to 100 nM | > 100 nM |  |
| COC[C@H](c1cnn2cc([C@@H](NC(=O)c3nonc3CC(F)(F)F)C3CCC(F)(F)CC3)nc2c1)N1CC(F)(F)CNC1=O [Example 130, N—((S)-(7-((S)-1-(5,5-Difluoro-2-oxotetrahydropyrimidin-1(2H)-yl)-2-methoxyethyl)imidazo[1,2-b]pyridazin-2-yl)(4,4-difluorocyclohexyl)methyl)-4-(2,2,2-trifluoroethyl)-1,2,5-oxadiazole-3-carboxamide] | < 50 nM | < 50 nM |  |
| COC[C@H](c1cnn2cc([C@@H](NC(=O)c3nonc3C3CC3)[C@@H](C)OC3(C(F)(F)F)CC3)nc2c1)N1CC(F)(F)CNC1=O (relative stereo) [Example 90, 4-Cyclopropyl-N-((1R*,2R*)-1-(7-((S)-1-(5,5-difluoro-2-oxotetrahydropyrimidin-1(2H)-yl)-2-methoxyethyl)imidazo[1,2-b]pyridazin-2-yl)-2-(1-(trifluoromethyl)cyclopropoxy)propyl)-1,2,5-oxadiazole-3-carboxamide] | < 50 nM | < 50 nM |  |
| COc1nonc1C(=O)N[C@@H](CCC(C)(C)C(F)(F)F)c1cn2ncc(CN3C[C@H]4[C@@H](CNC3=O)C4(F)F)cc2n1 (relative stereo) [Example 117, N—((S)-1-(7-(((1R*,7S*)-8,8-Difluoro-4-oxo-3,5-diazabicyclo[5.1.0]octan-3-yl)methyl)imidazo[1,2-b]pyridazin-2-yl)-5,5,5-trifluoro-4,4-dimethylpentyl)-4-methoxy-1,2,5-oxadiazole-3-carboxamide] | < 50 nM | < 50 nM |  |
| N—((S)-1-(7-((S)-2-Cyclopropoxy-1-(5,5-difluoro-2-oxotetrahydropyrimidin-1(2H)-yl-4,4,6,6-d4)ethyl)imidazo[1,2-b]pyridazin-2-yl)-5,5,5-trifluoro-4,4-dimethylpentyl)-1,2,5-oxadiazole-3-carboxamide trifluoroacetate [Example 131] | < 50 nM |  | > 100 nM |
| COC[C@H](c1cnn2cc(C(CCC(C)(C)C(F)(F)F)NC(=O)c3nonc3C)nc2c1)N1CC(F)(F)CNC1=O (single isomer, unassigned) [Example 45, N—((S*)-1-(7-((S)-1-(5,5-Difluoro-2-oxotetrahydropyrimidin-1(2H)-yl)-2-methoxyethyl)imidazo [1,2-b]pyridazin-2-yl)-5,5,5-trifluoro-4,4-dimethylpentyl)-4-methyl-1,2,5-oxadiazole-3-carboxamide] | < 50 nM | < 50 nM |  |
| O=C(N[C@H](c1cn2ncc([C@@H](COC3CC3)N3CC(F)(F)CNC3=O)cc2n1)C1CCC(F)(F)CC1)c1nonc1C(F)F [Example 78, N—((S)-(7-((S)-2-Cyclopropoxy-1-(5,5-difluoro-2-oxotetrahydropyrimidin-1(2H)-yl)ethyl)imidazo[1,2-b]pyridazin-2-yl)(4,4-difluorocyclohexyl)methyl)-4-(difluoromethyl)-1,2,5-oxadiazole-3-carboxamide] | < 50 nM | < 50 nM |  |

Continued, in another order:

| IC50 [2] | Compound | IC50 ([1]; Homo sapiens, Keratinocyte) | IC50 [1] |
| --- | --- | --- | --- |
| < 50 nM | COC[C@H](c1cnn2cc([C@@H](NC(=O)c3nonc3C(F)F)C3CCC(F)(F)CC3)nc2c1)N1CC(F)(F)CNC1=O [Example 79, N—((S)-(7-((S)-1-(5,5-Difluoro-2-oxotetrahydropyrimidin-1(2H)-yl)-2-methoxyethyl)imidazo[1,2-b]pyridazin-2-yl)(4,4-difluorocyclohexyl)methyl)-4-(difluoromethyl)-1,2,5-oxadiazole-3-carboxamide] | < 50 nM |  |
| < 50 nM | [2H]C1([2H])NC(=O)N([C@H](COC2CC2)c2cnn3cc([C@@H](NC(=O)c4nonc4CC)C4CCC(F)(F)CC4)nc3c2)C([2H])([2H])C1(F)F [Example 70, N—((S)-(7-((S)-2-Cyclopropoxy-1-(5,5-difluoro-2-oxotetrahydropyrimidin-1(2H)-yl-4,4,6,6-d4)ethyl)imidazo[1,2-b]pyridazin-2-yl)(4,4-difluorocyclohexyl)methyl)-4-ethyl-1,2,5-oxadiazole-3-carboxamide] | < 50 nM |  |
| < 50 nM | [2H]C1([2H])NC(=O)N([C@H](COC)c2cnn3cc([C@@H](NC(=O)c4nonc4C4CC4)C4CCC(F)(F)CC4)nc3c2)C([2H])([2H])C1(F)F [Example 72, 4-Cyclopropyl-N—((S)-(7-((S)-1-(5,5-difluoro-2-oxotetrahydropyrimidin-1(2H)-yl-4,4,6,6-d4)-2-methoxyethyl)imidazo[1,2-b]pyridazin-2-yl)(4,4-difluorocyclohexyl)methyl)-1,2,5-oxadiazole-3-carboxamide] | < 50 nM |  |
| < 50 nM | [2H]C1([2H])NC(=O)N([C@H](COC2CC2)c2cnn3cc([C@@H](NC(=O)c4nonc4C(F)F)C4CCC(F)(F)CC4)nc3c2)C([2H])([2H])C1(F)F [Example 82, N—((S)-(7-((S)-2-Cyclopropoxy-1-(5,5-difluoro-2-oxotetrahydropyrimidin-1(2H)-yl-4,4,6,6-d4)ethyl)imidazo[1,2-b]pyridazin-2-yl)(4,4-difluorocyclohexyl)methyl)-4-(difluoromethyl)-1,2,5-oxadiazole-3-carboxamide] | < 50 nM |  |
| < 50 nM | COC[C@H](c1cnn2cc(C(CCC3(C(F)(F)F)CC3)NC(=O)c3nonc3C)nc2c1)N1CC(F)(F)CNC1=O (single isomer, unassigned) [Example 126, N—((S*)-1-(7-((S)-1-(5,5-Difluoro-2-oxotetrahydropyrimidin-1(2H)-yl)-2-methoxyethyl)imidazo[1,2-b]pyridazin-2-yl)-3-(1-(trifluoromethyl)cyclopropyl)propyl)-4-methyl-1,2,5-oxadiazole-3-carboxamide] |  | < 50 nM |
| < 50 nM | O=C(N[C@H](c1cn2ncc([C@@H](C(F)F)N3CC(F)(F)CNC3=O)cc2n1)C1CCC(F)(F)CC1)c1nonc1C1CC1 [Example 89, 4-Cyclopropyl-N—((S)-(7-((S)-1-(5,5-difluoro-2-oxotetrahydropyrimidin-1(2H)-yl)-2,2-difluoroethyl)imidazo[1,2-b]pyridazin-2-yl)(4,4-difluorocyclohexyl)methyl)-1,2,5-oxadiazole-3-carboxamide] | < 50 nM |  |
| < 50 nM | COc1nonc1C(=O)N[C@@H](CCC(C)(C)C(F)(F)F)c1cn2ncc([C@@H](COC3CC3)N3CC(F)(F)CNC3=O)cc2n1 [Example 122, N—((S)-1-(7-((S)-2-Cyclopropoxy-1-(5,5-difluoro-2-oxotetrahydropyrimidin-1(2H)-yl)ethyl)imidazo[1,2-b]pyridazin-2-yl)-5,5,5-trifluoro-4,4-dimethylpentyl)-4-methoxy-1,2,5-oxadiazole-3-carboxamide] | < 50 nM |  |
| < 50 nM | Cc1nonc1C(=O)N[C@@H](CCC(C)(C)C(F)(F)F)c1cn2ncc([C@@H](COC3CC3)N3CC(F)(F)CNC3=O)cc2n1 [Example 56, N—((S)-1-(7-((S)-2-Cyclopropoxy-1-(5,5-difluoro-2-oxotetrahydropyrimidin-1(2H)-yl)ethyl)imidazo[1,2-b]pyridazin-2-yl)-5,5,5-trifluoro-4,4-dimethylpentyl)-4-methyl-1,2,5-oxadiazole-3-carboxamide] | < 50 nM |  |
| < 50 nM | COC[C@H](c1cnn2cc([C@@H](NC(=O)c3nocc3CC(F)(F)F)C3CCC(F)(F)CC3)nc2c1)N1CC(F)(F)CNC1=O [Example 106, N—((S)-(7-((S)-1-(5,5-Difluoro-2-oxotetrahydropyrimidin-1(2H)-yl)-2-methoxyethyl)imidazo[1,2-b]pyridazin-2-yl)(4,4-difluorocyclohexyl)methyl)-4-(2,2,2-trifluoroethyl)isoxazole-3-carboxamide] | < 50 nM |  |
